Columns and labels:
[1] = Pharmacokinetics study in ICR mice; format: in vivo, mouse
Method: Pharmacokinetic properties were investigated using ICR mice weighing between 18 and 22 grams. Six mice were assigned into two groups, with three in each group. ISOGK was administered via intragastric and tail vein injections. For both the intravenous and intragastric administration groups, cheek blood samples of approximately 0.05 mL were collected at 5 min, 15 min, 30 min, 1 h, 2 h, 4 h, 6 h, 8 h, and 24 h post-administration. The plasma concentration of compound in the mice was measured using the LC-MS/MS technique. Pharmacokinetic parameters were then analyzed using WinNonlin software.

Apoe-/- mice = experiment: High cholesterol diet-induced atherosclerosis in Apoe-/- mice; format: in vivo, mouse
Method: C57BL/6J (N000013, Gempharmatech, Nanjing, Jiangsu, China) and Apoe^-/- (T001458, Gempharmatech, Nanjing, Jiangsu, China) mice were employed. […] Alipoprotein E knockout (Apoe^-/-) mice were subjected to a 1.25% high cholesterol diet (#D12108C, RESEARCH DIETS, New Brunswick, NJ, USA). After 7 weeks of atherosclerosis induction, intraperitoneal injection of ISOGK (20 mg/kg/day) was initiated and continued for additional 8 weeks. Upon reaching the designated experimental endpoint, blood was collected retro-orbitally, and serum was isolated for subsequent biochemical parameter analysis. Subsequently, the aorta and heart tissues were processed. The aorta was subjected to Oil Red O staining (#G1260, SolarBio, Beijing, China) for en face examination, and cryosections of the aortic sinus were prepared for analysis as we previously described. The serum lipid profile was evaluated utilizing colorimetric kits from Leidu Biotech (Shenzhen, China). Liver samples were gathered, processed into a homogenate, and then centrifuged. The resulting transparent supernatant was utilized for assessing hepatic triglyceride (TG) and total cholesterol (TC) concentrations using kits obtained from commercial sources (290-63701 for TG, 294-65801 for TC; Wako, Tokyo, Japan and E-BC-K261-M for TG, E-BC-K109-M for TC; Elabscience, Wuhan, China). The levels of TG and TC were normalized against the weight of the liver tissue. Kits for antioxidant-related indicators, including GSH (S0059S, Beyotime, Shanghai, China), MDA (S0131S, Beyotime, Shanghai, China), SOD (S0101S, Beyotime, Shanghai, China), and ox-LDL (CSB-E07933m, CUSABIO, Beijing, China), were detected in mouse serum. Acly^flox/flox mice were sourced from the Shanghai Model Organisms Center (no. NM-CKO-200076). The Institutional Animal Care and Use Committee of the University of Science and Technology of China (USTC) approved all animal care procedures (approval number USTCACUC27120124102, USTCACUC212401038).
(§1) Plasma levels of TC, TG, LDL-C, and high-density lipoprotein cholesterol (HDL-C) were determined following the manufacturer's instructions. Liver tissues (30-40 mg) were homogenized in 0.5 mL of cold PBS for hepatic TG and cholesterol measurement. A 0.4 mL homogenate was combined with 1.4 mL of a CHCl3/CH3OH mixture (2:1, v/v) and shaken overnight at room temperature. Following centrifugation at 2,500 × g for a period of 10 min, the organic phase was meticulously transferred and permitted to air-dry. The residual organic material was then reconstituted in 800 μL of ethanol containing 1% Triton X-100, whereby the ethanol served to solubilize the material.
(§2) Fast protein liquid chromatography (FPLC) was employed to analyze plasma lipoproteins using 200 μL of pooled plasma samples. The samples were initially filtered through 0.22-µm filters and subsequently loaded onto Tricorn high-performance Superose S-6 10/300GL columns (Amersham Biosciences). Elution was conducted with PBS at a constant flow rate of 0.25 mL/min. The eluted fractions (500 μL each) were subjected to analysis for TG and TC concentrations using the aforementioned commercial assay kits.
Cytokines, including C-reactive protein (CRP) (RK04303, ABclonal, Guangzhou, China), interleukin-1 beta (IL-1 β) (RK00006, ABclonal, Guangzhou, China), and interleukin-6 (IL-6) (RK00008, ABclonal, Guangzhou, China), were extracted from mouse serum and analyzed using enzyme-linked immunosorbent assay (ELISA) kits. All procedures were conducted in accordance with the instructions provided by the manufacturers.
Tissue slides from the male Apoe^-/- mice aortic sinus was washed with PBS and then permeabilized in a solution of PBS with 0.3% BSA and 0.03% Triton X-100 for 1 h at room temperature. These sections were subsequently incubated overnight with primary antibodies at a 1:400 dilution, followed by a 1-h incubation with Alexa Fluor 488 or 546-conjugated sary antibodies at a 1:2000 dilution, also at room temperature. […]

Syrian golden hamsters = experiment: High cholesterol diet-fed Syrian golden hamsters; format: in vivo, hamster
Method: Syrian golden hamsters were purchased from Vital River Laboratories (Beijing, China). Hamsters were fed a high cholesterol diet and received ISOGK (5 mg/kg/day) for 4 weeks. Before being sacrificed, liver and blood samples were collected at the end of the experiment. The animal study protocol was approved by the Ethics Committee of Hefei University of Technology (approval number HFUT20221031001) and conducted in accordance with the guidelines set forth in the "Guide for the Care and Use of Laboratory Animals," published by the National Institutes of Health (NIH).
as §1, §2

[2] = 20 mg/kg/day i.p., 8 weeks, male or female Apoe-/- mice
[3] = female Apoe-/- mice, 20 mg/kg/day, 8 weeks
[4] = male Apoe-/- mice, 20 mg/kg/day, 8 weeks
[5] = hamsters, 5 mg/kg/day i.p., 4 weeks

Structure (SMILES): COc1ccc(-c2cc(=O)c3c(O)cc(O)c(-c4cc(-c5cc(=O)c6c(O)cc(O)cc6o5)ccc4OC)c3o2)cc1 [ISOGK, Isoginkgetin]
- peak plasma concentration ([1]; intravenous 5 mg/kg): 710 ng/mL
- Tmax ([1]; mouse, plasma, intravenous 5 mg/kg, read-out: time of peak plasma concentration (converted)): 5 min
- plasma levels after oral administration ([1]; oral 20 mg/kg): almost undetectable
- oral bioavailability ([1]; oral 20 mg/kg vs intravenous 5 mg/kg): low oral bioavailability
- body weight vs vehicle (Apoe-/- mice; [2]): No significant changes in body weight
- serum ALT and AST (Apoe-/- mice; [2]): no significant changes
- liver H&E and Sirius red staining (Apoe-/- mice; 20 mg/kg/day, 8 weeks, Apoe-/- mice): no substantial pathological alterations
- necrotic core area in aortic sinus (H&E) (Apoe-/- mice; Apoe-/- mice, 20 mg/kg/day, 8 weeks): notable reduction in the necrotic core area
- oxidative stress markers in serum (GSH, MDA, SOD, ox-LDL) (Apoe-/- mice; Apoe-/- mice, 8 weeks): no significant alterations
- LDLR and ACLY protein expression in liver tissues (Apoe-/- mice; Apoe-/- mice, Western blot): no significant change in either LDLR or ACLY protein expression
- TG levels in serum and liver tissue (Apoe-/- mice; Apoe-/- mice, irrespective of gender): notable decline in TG levels
- serum LDL-C and HDL-C (Apoe-/- mice; female Apoe-/- mice): remained unchanged
- decrease in aortic sinus lesion area (ORO) vs vehicle (Apoe-/- mice; [3]): 45.74%
- decrease in liver tissue TC (Apoe-/- mice; [3]): 32.34%
- decrease in serum TC (Apoe-/- mice; [3]): 24.24%
- reduction of en face aortic lesion area (ORO) vs vehicle (Apoe-/- mice; [3]): 3.88%
- TG and cholesterol carried in VLDL particles (FPLC) (Apoe-/- mice; female Apoe-/- mice, pooled plasma): significant reduction
- serum LDL-C (Apoe-/- mice; male Apoe-/- mice): decreased the serum levels of LDL-C
- content of macrophages in the aortic sinus (immunofluorescence) (Apoe-/- mice; [4]): substantial decline
- content of smooth muscle cells and endothelial cells in the aortic sinus (Apoe-/- mice; [4]): remained unaltered
- decrease in aortic sinus lesion area (ORO) vs vehicle (Apoe-/- mice; [4]): 46.35%
- decrease in liver tissue TC (Apoe-/- mice; [4]): 29.98%
- decrease in serum TC (Apoe-/- mice; [4]): 27.15%
- expression of cholesterol efflux genes in the liver (Apoe-/- mice; male Apoe-/- mice, qRT-PCR): no significant differences
- serum CRP, IL-1β and IL-6 (ELISA) (Apoe-/- mice; male or female Apoe-/- mice, vehicle vs ISOGK): no statistically significant differences
- decrease in hepatic TC (Syrian golden hamsters; [5]): 27.53%
- decrease in hepatic TG (Syrian golden hamsters; [5]): 64.14%
- reduction in serum LDL-C (Syrian golden hamsters; [5]): 56.55%
- reduction in serum TC (Syrian golden hamsters; [5]): 36.12%
- reduction in serum TG (Syrian golden hamsters; [5]): 46.87%
- lipid deposition in liver (Oil Red O) (Syrian golden hamsters; hamsters, 4 weeks): significantly reduced lipid deposition
- serum antioxidant indicators (MDA, SOD, ox-LDL) (Syrian golden hamsters; hamsters, 4 weeks): remained unaltered
- serum TC and TG distribution (FPLC) (Syrian golden hamsters; hamsters, pooled plasma): significant decrease in serum TC and TG distribution
- serum ALT and AST vs vehicle (Syrian golden hamsters; high cholesterol diet-fed hamsters, 5 mg/kg/day i.p., 4 weeks): no significant difference
- LDLR and ACLY protein levels in the liver (Syrian golden hamsters; hyperlipidemic hamsters, 5 mg/kg/day, 4 weeks): no significant difference
